Assays:
[1] = In vitro release of conjugated drug into solution/buffer; type: physicochemical; settings: after 12 hours in buffer at pH7.4 at 37° C.
Experimental: About 10% of the conjugated drug was released after 12 hours in a buffer at pH7.4 at 37° C.

RAW 264.7 cells = assay: Cytotoxicity by 3H-thymidine incorporation in murine RAW 264.7 cells
Experimental: (§1) The final aldehyde concentrations in the test were 0.01-34 μmol/mL.
(§2) The cytotoxicity of dextran derivatives was evaluated in murine RAW 264.7 cells, an internationally recognized cell line for examination of drug effects.
(§3) Growth inhibition was estimated by the ^3H-thymidine incorporation method. Cells were cultured in flat-bottom flasks at 37° C. Before each experiment the cells were washed and removed by trypsin treatment or scraped from the flask bottom, and an appropriate volume was centrifuged, resuspended, and diluted in growth medium to the desired cell concentration. […] By use of an automated dispenser, 200 μL of cell suspension was added to each well of a microtiter plate. After incubation overnight, the appropriate drug concentration, in triplicate, was added to test wells. Drug-free medium was used as control. ^3H-Thymidine (0.5 μCi) in 20 μL of medium was added the next day, and the plate was harvested and read by liquid scintillation counter (LKB, Finland) after an additional 24 h. The percent growth inhibition of the cells by the drug tested was calculated as [100−(count with drug/control count)×100].
(§4) Dextran with 50% oxidation was used as a positive toxicity control.
(§5) Drug effect and the IC50 were defined as previously described.

[2] = tested on: Leishmania donovani IS promastigotes; assay: In vitro activity against Leishmania donovani promastigotes (3H-thymidine incorporation); type: cell-based
Experimental: The in vitro antiparasitic activity was evaluated against Leishmania donovani IS promastigotes. This strain, isolated from a patient in Sudan, was received from the International Reference Center of the Kuvin Center for Infectious Diseases in the Hebrew University of Jerusalem.
Serial dilutions of the tested agents were prepared in RPMI 1640 growth medium. The final AmB concentration in the test ranged from 0.2 to 6 μg/mL. Wells containing drug-free medium served as control. […] Briefly, 96-well plates were seeded with 60,000 promastigotes/well in 200 μL of medium, and test solutions were added 3 h later. After 24 h of incubation, 0.5 μCi/well ^3H-thymidine (in 10% FCS medium) was added, and the cultures were harvested after an additional 24 h. During the experiment the cells were incubated at 25° C. in air. The drug effect and the IC50 of the conjugates were estimated as described before (Example 7).

Sheep erythrocytes = assay: Hemolysis evaluated visually after 1 h incubation at 37° C.; type: cell-based; settings: visual
[3] = tested on: Staphylococcus Aureus and E. Coli; assay: Antimicrobial activity, filter paper disc on seeded agar plate; type: cell-based; settings: 24 hours at 37° C.; 6 mm filter paper; equivalent amounts of drug
Experimental: The antimicrobial activity of these conjugates was determined as follows: Saline solutions of equivalent amounts of the drug in free form or the imine AG conjugate were absorbed onto a circular filter paper (6 mm in diameter) and placed on a seeded agar plate with Staphylococcus Aureus (10^5/ml) and E. Coli incubated for 24 hours at 37° C.

[4] = tested on: RAW 264.7 cells (growth, thymidine incorporation); assay: Cytotoxicity by 3H-thymidine incorporation in murine RAW 264.7 cells; settings: mouse, RAW 264.7 cells
Experimental: as §1, §2, §3, §4, §5

Somatostatin-Arabinogalactan Ethanolamine Conjugate: somatostatin conjugated to 32% oxidized AG, reacted with excess ethanolamine
conjugated drug released [1]: About 10%

Native Dextran
IC50 (in vitro cytotoxicity of modified dextran) (RAW 264.7 cells): >5000 µg/mL

C[C@@H]1[C@H](O)[C@@H](C)/C=C/C=C/C=C/C=C/C=C/C=C/C=C/[C@H](O[C@@H]2O[C@H](C)[C@@H](O)[C@H](N)[C@@H]2O)C[C@@H]2O[C@](O)(C[C@@H](O)C[C@@H](O)[C@H](O)CC[C@@H](O)C[C@@H](O)CC(=O)O[C@H]1C)C[C@H](O)[C@H]2C(=O)O [Free AmB, Amphotericin B]
toxicity to cells (RAW 264.7 cells; AmB and dextran-AmB conjugates, equivalent AmB amounts): extremely toxic
Toxicity IC50 (RAW 264.7 cells; murine RAW 264.7 cell line, 3H-thymidine incorporation): 9 μgAmB/ml
toxicity/activity to parasites ([2]; AmB and dextran-AmB conjugates): extremely toxic
Antiparasitic activity IC50 ([2]; Leishmania donovani, 3H-thymidine incorporation): 0.05 μgAmB/ml
Hemolysis (Sheep erythrocytes): 16 μgAmB/ml

gentamicin
inhibition zone [3]: > 20 mm

O=CCCCC=O [Glutaraldehyde]
IC50 at 48 h [4]: < 0.15 µg/mL
